The values below come from US7319098B2, “1,3-dioxoisoindole derivatives having selective antagonism of T-type calcium channel” (Korea Institute of Science and Technology, priority 2006, dated 2008).

The target of the first assay is T1, α1G T-type Ca2+ channels (Homo sapiens, UniProt O43497).
T1 construct: expressed in transfected cells; host or cells: HEK293 cells stably expressing α1G and Kir2.1
T1 sequence (O43497 whole entry): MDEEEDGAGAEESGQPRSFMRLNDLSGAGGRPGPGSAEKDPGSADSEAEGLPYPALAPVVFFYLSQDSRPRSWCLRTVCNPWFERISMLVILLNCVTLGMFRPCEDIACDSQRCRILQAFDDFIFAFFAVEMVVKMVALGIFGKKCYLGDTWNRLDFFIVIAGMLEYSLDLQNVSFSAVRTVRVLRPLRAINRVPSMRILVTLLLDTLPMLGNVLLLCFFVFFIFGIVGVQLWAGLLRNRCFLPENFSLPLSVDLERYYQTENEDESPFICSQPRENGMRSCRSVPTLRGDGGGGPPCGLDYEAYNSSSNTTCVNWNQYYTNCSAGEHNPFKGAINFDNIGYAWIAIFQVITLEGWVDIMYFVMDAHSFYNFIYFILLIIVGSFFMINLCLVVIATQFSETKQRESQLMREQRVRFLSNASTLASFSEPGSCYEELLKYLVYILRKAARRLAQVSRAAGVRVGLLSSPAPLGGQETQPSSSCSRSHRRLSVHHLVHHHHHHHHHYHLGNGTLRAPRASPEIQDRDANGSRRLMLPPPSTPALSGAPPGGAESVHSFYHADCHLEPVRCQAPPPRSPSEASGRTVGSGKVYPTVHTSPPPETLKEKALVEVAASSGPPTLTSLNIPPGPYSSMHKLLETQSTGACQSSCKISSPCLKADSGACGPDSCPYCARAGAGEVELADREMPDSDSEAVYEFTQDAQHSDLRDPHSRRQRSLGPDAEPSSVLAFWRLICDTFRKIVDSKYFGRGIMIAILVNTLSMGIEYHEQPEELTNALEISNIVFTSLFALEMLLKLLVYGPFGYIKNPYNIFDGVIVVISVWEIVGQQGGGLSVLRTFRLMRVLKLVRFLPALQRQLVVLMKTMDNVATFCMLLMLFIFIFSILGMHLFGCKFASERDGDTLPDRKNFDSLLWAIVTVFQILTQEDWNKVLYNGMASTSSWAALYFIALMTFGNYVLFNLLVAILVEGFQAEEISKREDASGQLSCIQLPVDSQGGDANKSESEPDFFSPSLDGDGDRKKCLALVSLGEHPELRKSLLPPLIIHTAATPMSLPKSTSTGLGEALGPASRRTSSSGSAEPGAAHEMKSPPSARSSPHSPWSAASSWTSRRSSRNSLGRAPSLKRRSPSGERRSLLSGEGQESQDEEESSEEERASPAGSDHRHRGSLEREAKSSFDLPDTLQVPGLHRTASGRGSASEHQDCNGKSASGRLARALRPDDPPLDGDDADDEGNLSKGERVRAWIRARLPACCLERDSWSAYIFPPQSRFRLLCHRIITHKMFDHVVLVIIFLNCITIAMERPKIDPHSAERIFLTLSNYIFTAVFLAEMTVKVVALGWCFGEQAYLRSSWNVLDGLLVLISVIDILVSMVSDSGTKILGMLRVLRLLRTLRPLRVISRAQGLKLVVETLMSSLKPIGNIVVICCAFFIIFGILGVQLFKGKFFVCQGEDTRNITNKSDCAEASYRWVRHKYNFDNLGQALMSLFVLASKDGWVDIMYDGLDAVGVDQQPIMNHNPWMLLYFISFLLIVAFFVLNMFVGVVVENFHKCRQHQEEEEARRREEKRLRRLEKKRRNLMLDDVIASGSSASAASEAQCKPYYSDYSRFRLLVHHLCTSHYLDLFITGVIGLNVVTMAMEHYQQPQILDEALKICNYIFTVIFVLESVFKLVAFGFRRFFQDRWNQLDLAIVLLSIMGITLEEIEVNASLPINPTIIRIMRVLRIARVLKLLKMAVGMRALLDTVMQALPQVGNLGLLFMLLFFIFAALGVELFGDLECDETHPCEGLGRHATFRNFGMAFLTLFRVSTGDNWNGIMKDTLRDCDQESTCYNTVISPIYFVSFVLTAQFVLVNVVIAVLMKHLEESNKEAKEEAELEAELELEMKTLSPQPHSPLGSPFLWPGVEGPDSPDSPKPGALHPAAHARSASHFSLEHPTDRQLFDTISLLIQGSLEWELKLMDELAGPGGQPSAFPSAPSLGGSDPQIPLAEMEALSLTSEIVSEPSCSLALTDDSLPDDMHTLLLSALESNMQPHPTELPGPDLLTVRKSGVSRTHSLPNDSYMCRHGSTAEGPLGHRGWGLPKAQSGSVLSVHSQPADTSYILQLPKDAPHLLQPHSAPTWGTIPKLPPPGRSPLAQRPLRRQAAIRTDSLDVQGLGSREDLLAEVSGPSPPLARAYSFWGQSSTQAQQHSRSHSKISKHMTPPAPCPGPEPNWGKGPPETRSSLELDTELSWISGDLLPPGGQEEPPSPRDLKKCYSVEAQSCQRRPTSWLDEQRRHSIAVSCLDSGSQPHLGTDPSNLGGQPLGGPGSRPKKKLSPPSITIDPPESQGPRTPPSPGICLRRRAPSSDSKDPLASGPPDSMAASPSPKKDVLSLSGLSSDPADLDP
Nature of the assay: Screening of activity against T-type calcium channel with FDSS6000 (fluorescence, KCl-induced [Ca2+]i increase). It is filed as cell-based. The settings on record: 10 μM; HEK293 cells expressing α1G and Kir2.1; NA: Not Active; read-out: Inhibitory effect (%) of T-type calcium channel, Inhibition (%). An outline of the steps:
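HEK293 cells stably expressing α1G plus Kir2.1 were loaded with 5 μM fluo3/AM for 60 min at room temperature in HEPES buffer pH 7.4. In buffer with 10 mM CaCl2, cells were pretreated with compound, then depolarized with 70 mM KCl. The rise in [Ca2+]i was measured by fluorescence […].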
As usually defined, the inhibition is the change of the read-out against control, counted positive when it falls. For `O=C(NCCCN1CCCC1)c1ccc2c(c1)C(=O)N(Cc1cccc(Cl)c1)C2=O` [Compound 84, 1-(3-{[2-(3-chloro-benzyl)-1,3-dioxo-2,3-dihydro-1H-isoindol-5-carbonyl]-amino}-propyl)-pyrrolidinium chloride], the inhibition at 10 µM amounted to 30.4%.
On the same count and under the same terms, the figure for `O=C(NCCN1CCOCC1)c1ccc2c(c1)C(=O)N(Cc1cccc(Cl)c1)C2=O` [Compound 85, 4-(2-{[2-(3-chloro-benzyl)-1,3-dioxo-2,3-dihydro-1H-isoindol-5-carbonyl]-amino}-ethyl)-4-morpholinium chloride] is 25.3%.
Turning to `O=C(NCCCN1CCOCC1)c1ccc2c(c1)C(=O)N(Cc1cccc(Cl)c1)C2=O` [Compound 86, 4-(3-{[2-(3-chloro-benzyl)-1,3-dioxo-2,3-dihydro-1H-isoindol-5-carbonyl]-amino}-propyl)-4-morpholinium chloride], the inhibition at 10 µM came to 27.8%.
Still for that read-out and setting: the figure for `O=C(NCCN1CCCC1)c1ccc2c(c1)C(=O)N(Cc1ccc(Cl)cc1)C2=O` [Compound 89, 1-(2-{[2-(4-chloro-benzyl)-1,3-dioxo-2,3-dihydro-1H-isoindol-5-carbonyl]-amino}-ethyl)-pyrrolidinium chloride] is 29.8%; for `O=C(NCCCN1CCCC1)c1ccc2c(c1)C(=O)N(Cc1ccc(Cl)cc1)C2=O` [Compound 90, 1-(3-{[2-(4-chloro-benzyl)-1,3-dioxo-2,3-dihydro-1H-isoindol-5-carbonyl]-amino}-propyl)-pyrrolidinium chloride] it is 35%.
`O=C(NCCN1CCOCC1)c1ccc2c(c1)C(=O)N(Cc1ccc(Cl)cc1)C2=O` [Compound 91, 4-(2-{[2-(4-chloro-benzyl)-1,3-dioxo-2,3-dihydro-1H-isoindol-5-carbonyl]-amino}-ethyl)-4-morpholinium chloride]: the inhibition at 10 µM came to 26.1%.
On the same count and under the same terms, in the case of `O=C(NCCCN1CCOCC1)c1ccc2c(c1)C(=O)N(Cc1ccc(Cl)cc1)C2=O` [Compound 92, 4-(3-{[2-(4-chloro-benzyl)-1,3-dioxo-2,3-dihydro-1H-isoindol-5-carbonyl]-amino}-propyl)-4-morpholinium chloride] it was 29.9%.
Turning to `Cc1ccccc1CN1C(=O)c2ccc(C(=O)NCCN3CCCC3)cc2C1=O` [Compound 95, 1-(2-{[2-(2-methyl-benzyl)-1,3-dioxo-2,3-dihydro-1H-isoindol-5-carbonyl]-amino}-ethyl)-pyrrolidinium chloride], the inhibition at 10 µM was 15.7%.
The same measure, in the same setting: in the case of `Cc1ccccc1CN1C(=O)c2ccc(C(=O)NCCCN3CCCC3)cc2C1=O` [Compound 96, 1-(3-{[2-(2-methyl-benzyl)-1,3-dioxo-2,3-dihydro-1H-isoindol-5-carbonyl]-amino}-propyl)-pyrrolidinium chloride] it was 15.5%.
Still for that read-out and setting: the figure for `Cc1cccc(CN2C(=O)c3ccc(C(=O)NCCN4CCCC4)cc3C2=O)c1` [Compound 101, 1-(2-{[2-(3-methyl-benzyl)-1,3-dioxo-2,3-dihydro-1H-isoindol-5-carbonyl]-amino}-ethyl)-pyrrolidinium chloride] is 27.2%.
With `Cc1cccc(CN2C(=O)c3ccc(C(=O)NCCCN4CCCC4)cc3C2=O)c1` [Compound 102, 1-(3-{[2-(3-methyl-benzyl)-1,3-dioxo-2,3-dihydro-1H-isoindol-5-carbonyl]-amino}-propyl)-pyrrolidinium chloride], the inhibition at 10 µM came out at 24.8%.
Still for that read-out and setting: in the case of `Cc1cccc(CN2C(=O)c3ccc(C(=O)NCCN4CCOCC4)cc3C2=O)c1` [Compound 103, 4-(2-{[2-(3-methyl-benzyl)-1,3-dioxo-2,3-dihydro-1H-isoindol-5-carbonyl]-amino}-ethyl)-4-morpholinium chloride] it was 21.1%.
With `Cc1cccc(CN2C(=O)c3ccc(C(=O)NCCCN4CCOCC4)cc3C2=O)c1` [Compound 104, 4-(3-{[2-(3-methyl-benzyl)-1,3-dioxo-2,3-dihydro-1H-isoindol-5-carbonyl]-amino}-propyl)-4-morpholinium chloride], the inhibition at 10 µM came to 15.5%.
Same read-out and setting: in the case of `Cc1ccc(CN2C(=O)c3ccc(C(=O)NCCN4CCCCC4)cc3C2=O)cc1` [Compound 105, 1-(2-{[2-(4-methyl-benzyl)-1,3-dioxo-2,3-dihydro-1H-isoindol-5-carbonyl]-amino}-ethyl)-piperidinium chloride] it was 30.9%; in that of `Cc1ccc(CN2C(=O)c3ccc(C(=O)NCCCN4CCCCC4)cc3C2=O)cc1` [Compound 106, 1-(3-{[2-(4-methyl-benzyl)-1,3-dioxo-2,3-dihydro-1H-isoindol-5-carbonyl]-amino}-propyl)-piperidinium chloride], 40.1%.
On the same count and under the same terms, in the case of `Cc1ccc(CN2C(=O)c3ccc(C(=O)NCCN4CCCC4)cc3C2=O)cc1` [Compound 107, 1-(2-{[2-(4-methyl-benzyl)-1,3-dioxo-2,3-dihydro-1H-isoindol-5-carbonyl]-amino}-ethyl)-pyrrolidinium chloride] it was 20.7%; in that of `Cc1ccc(CN2C(=O)c3ccc(C(=O)NCCCN4CCCC4)cc3C2=O)cc1` [Compound 108, 1-(3-{[2-(4-methyl-benzyl)-1,3-dioxo-2,3-dihydro-1H isoindol-5-carbonyl]-amino}-propyl)-pyrrolidinium chloride], 15.6%; in that of `Cc1ccc(CN2C(=O)c3ccc(C(=O)NCCN4CCOCC4)cc3C2=O)cc1` [Compound 109, 4-(2-{[2-(4-methyl-benzyl)-1,3-dioxo-2,3-dihydro-1H-isoindol-5-carbonyl]-amino}-ethyl)-4-morpholinium chloride], 12.2%.
On to `Cc1ccc(CN2C(=O)c3ccc(C(=O)NCCCN4CCOCC4)cc3C2=O)cc1` [Compound 110, 4-(3-{[2-(4-methyl-benzyl)-1,3-dioxo-2,3-dihydro-1H-isoindol-5-carbonyl]-amino}-propyl)-4-morpholinium chloride], for which the inhibition at 10 µM amounted to 9.1%.

The assay is the same for the next values; noted with them: 100 μM; HEK293 cells expressing α1G and Kir2.1; read-out: Inhibitory effect (%) of T-type calcium channel, Inhibition (%).
Take `Cc1ccccc1CN1C(=O)c2ccc(C(=O)NCCN3CCOCC3)cc2C1=O` [Compound 97, 4-(2-{[2-(2-methyl-benzyl)-1,3-dioxo-2,3-dihydro-1H-isoindol-5-carbonyl]-amino}-ethyl)-4-morpholinium chloride]: the inhibition at 100 µM turned out to be 69.8%.
The same measure, in the same setting: in the case of `Cc1ccccc1CN1C(=O)c2ccc(C(=O)NCCCN3CCOCC3)cc2C1=O` [Compound 98, 4-(3-{[2-(2-methyl-benzyl)-1,3-dioxo-2,3-dihydro-1H-isoindol-5-carbonyl]-amino}-propyl)-4-morpholinium chloride] it was 55.2%.
Regarding `COc1ccccc1CN1C(=O)c2ccc(C(=O)NCCN3CCCCC3)cc2C1=O` [Compound 111, 1-(2-{[2-(2-methoxy-benzyl)-1,3-dioxo-2,3-dihydro-1H-isoindol-5-carbonyl]-amino}-ethyl)-piperidinium chloride], the inhibition at 100 µM turned out to be 69.5%.
Same read-out and setting: in the case of `COc1ccccc1CN1C(=O)c2ccc(C(=O)NCCCN3CCCCC3C)cc2C1=O` (stereo not shown) [Compound 112, 1-(3-{[2-(2-methoxy-benzyl)-1,3-dioxo-2,3-dihydro-1H-isoindol-5-carbonyl]-amino}-propyl)-2-methyl-piperidinium chloride] it was 75.1%; in that of `COc1ccccc1CN1C(=O)c2ccc(C(=O)NCCN3CCCC3)cc2C1=O` [Compound 113, 1-(2-{[2-(2-methoxy-benzyl)-1,3-dioxo-2,3-dihydro-1H-isoindol-5-carbonyl]-amino}-ethyl)-pyrrolidinium chloride], 55.1%.
Turning to `COc1ccccc1CN1C(=O)c2ccc(C(=O)NCCCN3CCCC3)cc2C1=O` [Compound 114, 1-(3-{[2-(2-methoxy-benzyl)-1,3-dioxo-2,3-dihydro-1H-isoindol-5-carbonyl]-amino}-propyl)-pyrrolidinium chloride], the inhibition at 100 µM is 53%.
With `COc1ccccc1CN1C(=O)c2ccc(C(=O)NCCN3CCOCC3)cc2C1=O` [Compound 115, 4-(2-{[2-(2-methoxy-benzyl)-1,3-dioxo-2,3-dihydro-1H-isoindol-5-carbonyl]-amino}-ethyl)-4-morpholinium chloride], the inhibition at 100 µM amounted to 51.1%.
Still for that read-out and setting: the figure for `COc1ccccc1CN1C(=O)c2ccc(C(=O)NCCCN3CCOCC3)cc2C1=O` [Compound 116, 4-(3-{[2-(2-methoxy-benzyl)-1,3-dioxo-2,3-dihydro-1H-isoindol-5-carbonyl]-amino}-propyl)-4-morpholinium chloride] is 48.8%; for `COc1cccc(CN2C(=O)c3ccc(C(=O)NCCN4CCCCC4)cc3C2=O)c1` [Compound 117, 1-(2-{[2-(3-methoxy-benzyl)-1,3-dioxo-2,3-dihydro-1H-isoindol-5-carbonyl]-amino}-ethyl)-piperidinium chloride] it is 69.8%; for `COc1cccc(CN2C(=O)c3ccc(C(=O)NCCCN4CCCCC4C)cc3C2=O)c1` (stereo not shown) [Compound 118, 1-(3-{[2-(3-methoxy-benzyl)-1,3-dioxo-2,3-dihydro-1H-isoindol-5-carbonyl]-amino}-propyl)-2-methyl-piperidinium chloride] it is 71.1%.
Still for that read-out and setting: the figure for `COc1cccc(CN2C(=O)c3ccc(C(=O)NCCN4CCCC4)cc3C2=O)c1` [Compound 119, 1-(2-{[2-(3-methoxy-benzyl)-1,3-dioxo-2,3-dihydro-1H-isoindol-5-carbonyl]-amino}-ethyl)-pyrrolidinium chloride] is 56.3%; for `COc1cccc(CN2C(=O)c3ccc(C(=O)NCCCN4CCCC4)cc3C2=O)c1` [Compound 120, 1-(3-{[2-(3-methoxy-benzyl)-1,3-dioxo-2,3-dihydro-1H-isoindol-5-carbonyl]-amino}-propyl)-pyrrolidinium chloride] it is 63.7%.
